Assay results published in patent publication US12325697B2 (Nimbus Clio, Inc., priority 2021, dated 2025).

Columns and labels:
[1] = target: Recombinant human c-Cbl (aa 47-435) (Homo sapiens (Human), UniProt P22681); assay: c-Cbl Biochemical Assay (TR-FRET)
Summary of the method: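 Biotinylated c-Cbl (6 nM) preincubated 30 min RT with compound, then reacted 60-90 min with Src-Zap70 (2.5-10 nM) and 0.5 mM ATP, pH 7.0 HEPES buffer. Stopped with EDTA; 100 nM Bodipy-ubiquitinated UBE2D2 binding read by TR-FRET after 60 min; IC50 from 4-parameter fit.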

[2] = target: Recombinant human Cbl-b (aa 36-427) (Homo sapiens (Human), UniProt Q13191); assay: Cbl-b Biochemical Assay (TR-FRET); conditions: read-out: TR-FRET hCbl-b IC50
Summary of the method: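 Two-step TR-FRET: 6 nM biotinylated Cbl-b preincubated 30-60 min with compound, then 60 min at RT with 1-2.5 nM Src-Zap70 and 0.5 mM ATP in HEPES pH 7.0 buffer, 1% DMSO. Stopped with 5 mM EDTA plus 100 nM UBE2D2-Ub-FL-BODIPY and 1 nM streptavidin-Tb, 60 min; 520 nm signal; IC50 from 4-parameter fit.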

Sequence of Recombinant human Cbl-b (aa 36-427) (Q13191 36-427): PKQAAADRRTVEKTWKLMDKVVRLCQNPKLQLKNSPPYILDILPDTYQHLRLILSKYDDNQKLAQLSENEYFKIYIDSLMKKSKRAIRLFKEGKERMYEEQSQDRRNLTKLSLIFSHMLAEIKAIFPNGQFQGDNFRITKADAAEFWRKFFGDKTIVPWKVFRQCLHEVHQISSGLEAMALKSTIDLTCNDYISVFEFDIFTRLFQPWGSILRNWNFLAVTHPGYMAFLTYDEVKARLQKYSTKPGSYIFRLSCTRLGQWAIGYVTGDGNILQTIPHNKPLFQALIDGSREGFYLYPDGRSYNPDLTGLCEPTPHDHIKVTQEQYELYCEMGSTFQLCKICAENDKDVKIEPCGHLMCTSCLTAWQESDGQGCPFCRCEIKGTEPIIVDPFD
Sequence of Recombinant human c-Cbl (aa 47-435) (P22681 47-435): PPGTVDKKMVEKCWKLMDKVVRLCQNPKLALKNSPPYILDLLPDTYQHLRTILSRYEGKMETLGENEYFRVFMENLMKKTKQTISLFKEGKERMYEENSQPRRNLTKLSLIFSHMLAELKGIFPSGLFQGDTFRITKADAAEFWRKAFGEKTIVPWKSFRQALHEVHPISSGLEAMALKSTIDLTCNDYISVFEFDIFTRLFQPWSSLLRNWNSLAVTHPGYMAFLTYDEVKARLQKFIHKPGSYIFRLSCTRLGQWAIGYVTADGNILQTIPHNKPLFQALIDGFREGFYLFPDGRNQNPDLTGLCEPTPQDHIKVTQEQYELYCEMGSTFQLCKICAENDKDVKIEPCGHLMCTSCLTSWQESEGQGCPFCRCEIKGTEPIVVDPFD

SMILES | IC50 [1] | IC50 [2]
Cn1cnnc1-c1cc(C#N)ccc1-c1cc(C2CC2)nc(N2Cc3ccc(CNCC4(O)CCCC4)cc3C2=O)c1 [AIF-1, 4-{2-Cyclopropyl-6-[6-({[(1-hydroxycyclopentyl)methyl]amino}methyl)-1-oxo-3H-isoindol-2-yl]pyridin-4-yl}-3-(4-methyl-1,2,4-triazol-3-yl)benzonitrile] | ≤ 200 nM | ≤ 200 nM
Cn1cnnc1-c1cc(C#N)ccc1-c1cc(C2CC2)nc(N2Cc3c(F)cc(CNCC4CCC4)cc3C2=O)c1 [AKS-1, 4-[2-(6-{1[(Cyclobutylmethyl)amino]methyl}-4-fluoro-1-oxo-3H-isoindol-2-yl)-6-cyclopropylpyridin-4-yl]-3-(4-methyl-1,2,4-triazol-3-yl)benzonitrile] | ≤ 200 nM | ≤ 200 nM
Cn1cnnc1-c1cc(C#N)ccc1-c1cc(C2CC2)nc(N2Cc3ccc(CN4C[C@@H]5C[C@H]4CO5)cc3C2=O)c1 [AMN-1, 4-(2-Cyclopropyl-6-{6-[(1S,4S)-2-oxa-5-azabicyclo[2.2.1]heptan-5-ylmethyl]-1-oxo-3H-isoindol-2-yl}pyridin-4-yl)-3-(4-methyl-1,2,4-triazol-3-yl)benzonitrile] | ≤ 200 nM | ≤ 200 nM
CNCc1ccc2c(c1)C(=O)N(c1cc(-c3ccc(C#N)cc3-c3nncn3C)cc(C3CC3)n1)C2 [AIT-1, 4-(2-cyclopropyl-6-{6-[(methylamino)methyl]-1-oxo-3H-isoindol-2-yl}pyridin-4-yl)-3-(4-methyl-1,2,4-triazol-3-yl)benzonitrile] | ≤ 200 nM | ≤ 200 nM
Cn1cnnc1-c1cc(C#N)ccc1-c1cc(C2CC2)nc(N2Cc3c(F)cc(CN[C@@H]4COC[C@@H]4O)cc3C2=O)c1 [ALI-2, 4-{2-Cyclopropyl-6-[4-fluoro-6-({[(3R,4R)-4-hydroxyoxolan-3-yl]amino}methyl)-1-oxo-3H-isoindol-2-yl]pyridin-4-yl}-3-(4-methyl-1,2,4-triazol-3-yl)benzonitrile] | ≤ 200 nM | ≤ 200 nM
CN1CCC[C@H]1COCc1cc2c(c(C(F)(F)F)c1)CN(c1cc(-c3ccc(F)cc3-c3nncn3C)cc(C3CC3)n1)C2=O [AHR-4, (S)-2-(6-Cyclopropyl-4-(4-fluoro-2-(4-methyl-4H-1,2,4-triazol-3-yl)phenyl)pyridin-2-yl)-6-(((1-methylpyrrolidin-2-yl)methoxy)methyl)-4-(trifluoromethyl)isoindolin-1-one] | ≤ 200 nM | ≤ 200 nM
C[C@@H]1[C@@H](O)CCN1Cc1cc(F)c2c(c1)C(=O)N(c1cc(-c3ccc(C#N)cc3-c3nncn3C)cc(C3CC3)n1)C2 [ANC-2, 4-[2-Cyclopropyl-6-(4-fluoro-6-{[(2R,3S)-3-hydroxy-2-methylpyrrolidin-1-yl]methyl}-1-oxo-3H-isoindol-2-yl)pyridin-4-yl]-3-(4-methyl-1,2,4-triazol-3-yl)benzonitrile] | ≤ 200 nM | ≤ 200 nM
Cn1cnnc1-c1cc(C#N)ccc1-c1cc(C2CC2)nc(N2Cc3ccc(CNCC(C)(C)F)cc3C2=O)c1 [ALD-2, 4-[2-Cyclopropyl-6-(6-{[(2-fluoro-2-methylpropyl)amino]methyl}-1-oxo-3H-isoindol-2-yl)pyridin-4-yl]-3-(4-methyl-1,2,4-triazol-3-yl)benzonitrile] | ≤ 200 nM | ≤ 200 nM
Cn1cnnc1-c1cc(C#N)ccc1-c1cc(C2CC2)nc(N2Cc3ccc(CN4CC(F)C4)cc3C2=O)c1 [ALJ-1, 4-(2-Cyclopropyl-6-{6-[(3-fluoroazetidin-1-yl)methyl]-1-oxo-3H-isoindol-2-yl}pyridin-4-yl)-3-(4-methyl-1,2,4-triazol-3-yl)benzonitrile] | ≤ 200 nM | ≤ 200 nM
Cn1cnnc1-c1cc(C#N)ccc1-c1cc(C2CC2)nc(N2Cc3cc(Cl)c(CNCC4CCCC4)cc3C2=O)c1 [AKO-2, 4-(2-(5-Chloro-6-(((cyclopentylmethyl)amino)methyl)-1-oxoisoindolin-2-yl)-6-cyclopropylpyridin-4-yl)-3-(4-methyl-4H-1,2,4-triazol-3-yl)benzonitrile] | ≤ 200 nM | ≤ 200 nM
C[C@@H](NC1COC1)c1ccc2c(c1)C(=O)N(c1cc(-c3ccc(C#N)cc3-c3nncn3C)cc(C3CC3)n1)C2 [AOC-2] | ≤ 200 nM | ≤ 200 nM
Cn1cnnc1-c1cc(C#N)ccc1-c1cccc(N2Cc3ccc(CNCC4CC4)cc3C2=O)c1 [AJE-2, 3′-(6-(((Cyclopropylmethyl)amino)methyl)-1-oxoisoindolin-2-yl)-2-(4-methyl-4H-1,2,4-triazol-3-yl)-[1,1′-biphenyl]-4-carbonitrile] | ≤ 200 nM | ≤ 200 nM
CC(=O)NCCNCc1ccc2c(c1)C(=O)N(c1cc(-c3ccc(C#N)cc3-c3nncn3C)cc(C3CC3)n1)C2 [AMB-1, N-(2-{[(2-{4-[4-Cyano-2-(4-methyl-1,2,4-triazol-3-yl)phenyl]-6-cyclopropylpyridin-2-yl}-3-oxo-1H-isoindol-5-yl)methyl]amino}ethyl)acetamide] | ≤ 200 nM | ≤ 200 nM
Cn1cnnc1-c1cc(C#N)ccc1-c1cc(C2CC2)cc(N2Cc3ccc(CNCC4CC4)cc3C2=O)c1 [AJR-1, 3′-Cyclopropyl-5′-(6-{[(cyclopropylmethyl)amino]methyl}-1-oxo-3H-isoindol-2-yl)-2-(4-methyl-1,2,4-triazol-3-yl)-[1,1′-biphenyl]-4-carbonitrile] | ≤ 200 nM | ≤ 200 nM
Cn1cnnc1-c1cc(F)ccc1-c1cc(C2CC2)nc(N2Cc3c(cc(COCCO)cc3C(F)(F)F)C2=O)c1 [AHX-2, 2-(6-Cyclopropyl-4-(4-fluoro-2-(4-methyl-4H-1,2,4-triazol-3-yl)phenyl)pyridin-2-yl)-6-((2-hydroxyethoxy)methyl)-4-(trifluoromethyl)isoindolin-1-one] | ≤ 200 nM | ≤ 200 nM
Cn1cnnc1-c1cc(C#N)ccc1-c1cc(C2CC2)nc(N2Cc3ccc(CN4CC5(COC5)C4)cc3C2=O)c1 [AOL-1, 4-[2-Cyclopropyl-6-(6-{2-oxa-6-azaspiro[3.3]heptan-6-ylmethyl}-1-oxo-3H-isoindol-2-yl)pyridin-4-yl]-3-(4-methyl-1,2,4-triazol-3-yl)benzonitrile] | ≤ 200 nM | ≤ 200 nM
Cn1cnnc1-c1cc(C#N)ccc1-c1cc(C2CC2)nc(N2Cc3c(F)cc(CN[C@@]4(C)COC[C@H]4O)cc3C2=O)c1 (stereo in doubt) [AOG-1, 4-[2-Cyclopropyl-6-(4-fluoro-6-{[(4-hydroxy-3-methyloxolan-3-yl)amino]methyl}-1-oxo-3H-isoindol-2-yl)pyridin-4-yl]-3-(4-methyl-1,2,4-triazol-3-yl)benzonitrile] | ≤ 200 nM | ≤ 200 nM
Cn1cnnc1-c1cc(C#N)ccc1-c1cc(C2CC2)nc(N2Cc3ccc(O)cc3C2=O)c1 [AJL-2, 4-(2-cyclopropyl-6-(6-hydroxy-1-oxoisoindolin-2-yl)pyridin-4-yl)-3-(4-methyl-4H-1,2,4-triazol-3-yl)benzonitrile] | ≤ 200 nM | ≤ 200 nM
Cn1cnnc1-c1cc(C#N)ccc1-c1cc(C2CC2)nc(N2Cc3c(F)cc(CN4CC[C@@H]5COC[C@H]54)cc3C2=O)c1 [AOU-1, 4-(2-Cyclopropyl-6-(4-fluoro-6-(((3aS,6aS)-hexahydro-1H-furo[3,4-b]pyrrol-1-yl)methyl)-1-oxoisoindolin-2-yl)pyridin-4-yl)-3-(4-methyl-4H-1,2,4-triazol-3-yl)benzonitrile] | ≤ 200 nM | ≤ 200 nM
